# In ChEMBL document CHEMBL3632501, “New SIRT1 activator from alkaline hydrolysate of total saponins in the stems-leaves of Panax ginseng” (Bioorg Med Chem Lett, 2015):
# pIC50: −log10 of the molar value. Activity calls are given as the source filed them. No cut-off for these calls is given here.
# How the values were obtained:
# HL-60 = test: Cytotoxicity against human HL60 cells after 48 hrs by MTT assay; type: functional, cell-based; conditions: for pIC50: HL-60, 48 h
# HepG2 = test: Cytotoxicity against human HepG2 cells after 48 hrs by MTT assay; type: functional, cell-based; conditions: for pIC50: HepG2, 48 h
# [1] = target: T1, NAD-dependent protein deacetylase sirtuin-1 (Homo sapiens) (UniProt Q96EB6); test: Activation of SIRT1 (unknown origin) after 45 mins by NAD/NADH enzyme-based fluorometric assay
# T1 sequence (whole entry): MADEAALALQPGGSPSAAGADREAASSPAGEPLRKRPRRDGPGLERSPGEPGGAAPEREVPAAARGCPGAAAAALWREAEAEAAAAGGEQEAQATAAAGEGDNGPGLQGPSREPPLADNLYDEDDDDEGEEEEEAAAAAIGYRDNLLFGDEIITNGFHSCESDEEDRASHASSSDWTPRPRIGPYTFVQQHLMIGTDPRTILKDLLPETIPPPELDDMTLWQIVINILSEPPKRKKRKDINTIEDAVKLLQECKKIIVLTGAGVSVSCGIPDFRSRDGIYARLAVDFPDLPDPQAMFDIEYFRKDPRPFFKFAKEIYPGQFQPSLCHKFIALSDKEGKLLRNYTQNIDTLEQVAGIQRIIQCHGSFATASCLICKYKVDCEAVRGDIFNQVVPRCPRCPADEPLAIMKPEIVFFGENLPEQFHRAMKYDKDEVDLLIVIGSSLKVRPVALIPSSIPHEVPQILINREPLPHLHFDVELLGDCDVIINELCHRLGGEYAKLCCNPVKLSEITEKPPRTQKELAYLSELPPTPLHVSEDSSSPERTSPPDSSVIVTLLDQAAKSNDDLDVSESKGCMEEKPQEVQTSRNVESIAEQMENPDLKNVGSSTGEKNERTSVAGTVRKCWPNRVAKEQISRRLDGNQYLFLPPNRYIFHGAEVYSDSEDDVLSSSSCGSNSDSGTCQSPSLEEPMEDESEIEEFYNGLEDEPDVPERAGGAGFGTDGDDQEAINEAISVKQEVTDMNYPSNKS
Compound,pIC50 (HL-60),pIC50 (HepG2),Activity [1],Activity (HL-60),Activity (HepG2)
CC(C)=CCC[C@@](C)(O)[C@H]1CC[C@]2(C)[C@@H]1[C@H](O)C[C@@H]1[C@@]3(C)CC[C@H](O)C(C)(C)[C@@H]3CC[C@]12C,4.63,4.16,Active,,
CC(C)=CCC[C@@](C)(O)[C@H]1CC[C@]2(C)[C@@H]1[C@H](O)C[C@@H]1[C@@]3(C)CC[C@H](O)C(C)(C)[C@@H]3[C@@H](O)C[C@]12C,4.54,4.23,Active,,
CC(C)=CCC[C@](C)(O)[C@H]1CC[C@]2(C)[C@@H]1[C@H](O)C[C@@H]1[C@@]3(C)CC[C@H](O)C(C)(C)[C@@H]3[C@@H](O[C@@H]3O[C@H](CO)[C@@H](O)[C@H](O)[C@H]3O)C[C@]12C [GINSENOSIDE RH1],< 3.70,< 3.70,Active,,
CC(C)=CC/C=C(\C)[C@H]1CC[C@]2(C)[C@@H]1[C@H](O)C[C@@H]1[C@@]3(C)CC[C@H](O)C(C)(C)[C@@H]3[C@@H](O[C@@H]3O[C@H](CO)[C@@H](O)[C@H](O)[C@H]3O[C@@H]3O[C@@H](C)[C@H](O)[C@@H](O)[C@H]3O)C[C@]12C,4.08,3.82,inactive,,
CCC1=C[C@@H]2CN(C1)Cc1c([nH]c3ccccc13)[C@@](C(=O)OC)(c1cc3c(cc1OC)N(C)[C@H]1[C@@](O)(C(=O)OC)[C@H](OC(C)=O)[C@]4(CC)C=CCN5CC[C@]31[C@@H]54)C2 [VINORELBINE],4.94,4.64,,,
C=C(C)[C@@H](O)C/C=C(\C)[C@H]1CC[C@]2(C)[C@@H]1[C@H](O)C[C@@H]1[C@@]3(C)CC[C@H](O[C@@H]4O[C@H](CO)[C@@H](O)[C@H](O)[C@H]4O)C(C)(C)[C@@H]3CC[C@]12C,4.61,4.36,Active,,
C=C(CCC=C(C)C)[C@H]1CC[C@]2(C)[C@@H]1[C@H](O)C[C@@H]1[C@@]3(C)CC[C@H](O[C@@H]4O[C@H](CO)[C@@H](O)[C@H](O)[C@H]4O[C@@H]4O[C@H](CO)[C@@H](O)[C@H](O)[C@H]4O)C(C)(C)[C@@H]3CC[C@]12C [GISENOSIDE RK1],4.24,4.10,Active,,
CC(=O)OC[C@H]1O[C@@H](O[C@H]2C[C@]3(C)[C@H](C[C@@H](O)[C@@H]4[C@@H]([C@@](C)(O)CCC=C(C)C)CC[C@]43C)[C@@]3(C)CC[C@H](O)C(C)(C)[C@H]23)[C@H](O)[C@@H](O)[C@@H]1O,3.89,3.77,Active,,
CC(C)=CCC[C@@](C)(O)[C@H]1CC[C@]2(C)[C@@H]1[C@H](O)C[C@@H]1[C@@]3(C)CC[C@H](O)C(C)(C)[C@@H]3[C@@H](O[C@@H]3O[C@H](CO)[C@@H](O)[C@H](O)[C@H]3O)C[C@]12C,< 3.70,< 3.70,inactive,,
C=C(CCC=C(C)C)[C@H]1CC[C@]2(C)[C@@H]1[C@H](O)C[C@@H]1[C@@]3(C)CC[C@H](O)C(C)(C)[C@@H]3[C@@H](O)C[C@]12C,4.74,4.38,Active,,
CC(C)=CC/C=C(\C)[C@H]1CC[C@]2(C)[C@@H]1[C@H](O)C[C@@H]1[C@@]3(C)CC[C@H](O[C@@H]4O[C@H](CO)[C@@H](O)[C@H](O)[C@H]4O)C(C)(C)[C@@H]3[C@@H](O)C[C@]12C,4.30,4.06,Active,,
CC(C)=CCC[C@](C)(O)[C@H]1CC[C@]2(C)[C@@H]1[C@H](O)C[C@@H]1[C@@]3(C)CC[C@H](O)C(C)(C)[C@@H]3CC[C@]12C,4.81,4.34,Active,,
CC(C)=CC/C=C(\C)[C@H]1CC[C@]2(C)[C@@H]1[C@H](O)C[C@@H]1[C@@]3(C)CC[C@H](O)C(C)(C)[C@@H]3[C@@H](O)C[C@]12C,4.99,4.61,Active,Dose-dependent effect,Dose-dependent effect
CC(C)=CCC[C@](C)(O)[C@H]1CC[C@]2(C)[C@@H]1[C@H](O)C[C@@H]1[C@@]3(C)CC[C@H](O)C(C)(C)[C@@H]3[C@@H](O)C[C@]12C,4.64,4.36,Active,,
